Earlier results on one compound are cited in patent US20040197402A1, “Oxcarbazepine dosage forms” (priority 2001, published 2004).

For the series the following is noted: background statement.

Take `NC(=O)N1c2ccccc2CC(=O)c2ccccc21` [Oxcarbazepine, 10, 11-dihydro-10-oxo-5H-dibenz [b,f], azepine-5-carboxamide]: the solubility in water result is reported as “poor solubility in water”.
